Experimental data from PubChem BioAssay AID248 (DTP/NCI, 2004).
“And” between values parts separate entries of the source, which are not always exact repeats. Equal values may be shown once. Toxic doses and inconclusive results are not listed. Cut-off read from the data, not from the text of the source: active = T/C of 150% or more; inactive = T/C below 125%. Peptide text beside a SMILES is read from it. * marks the point of attachment. Bz = O=C(c1ccccc1)*

System: L1210 leukemia ip in BDF1 mice, survival T/C
Experiment: NCI In Vivo Anticancer Drug Screen. Data for tumor model L1210 Leukemia (intraperitoneal) in B6D2F1 (BDF1) mice
Details: endpoint: mean survival time, higher = longer survival
Summary of the method: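 Value reflects the ratio of survival in compound-treated mice to survival in vehicle-treated controls, with both groups carrying the same transplanted tumor.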

[1] = dose: 100.0 mg/kg/injection, schedule: Q01DX009 (ip), vehicle: saline with Tween-80
[2] = dose: 200.0 mg/kg/injection, schedule: Q01DX009 (ip), vehicle: saline with Tween-80
[3] = dose: 400.0 mg/kg/injection, schedule: Q01DX009 (ip), vehicle: saline with Tween-80
[4] = dose: 100.0 mg/kg/injection, schedule: Q04DX003 (ip), vehicle: Klucel (hydroxypropylcellulose) (HPC)
[5] = dose: 200.0 mg/kg/injection, schedule: Q04DX003 (ip), vehicle: Klucel (hydroxypropylcellulose) (HPC)
[6] = dose: 400.0 mg/kg/injection, schedule: Q04DX003 (ip), vehicle: Klucel (hydroxypropylcellulose) (HPC)
[7] = dose: 100.0 mg/kg/injection, schedule: Q04DX002 (ip), vehicle: Klucel (hydroxypropylcellulose) (HPC)
[8] = dose: 200.0 mg/kg/injection, schedule: Q04DX002 (ip), vehicle: Klucel (hydroxypropylcellulose) (HPC)
[9] = dose: 50.0 mg/kg/injection, schedule: Q01DX009 (ip), vehicle: Klucel (hydroxypropylcellulose) (HPC)
[10] = dose: 100.0 mg/kg/injection, schedule: Q01DX001 (ip), vehicle: Klucel (hydroxypropylcellulose) (HPC)
[11] = dose: 100.0 mg/kg/injection, schedule: Q01DX009 (ip), vehicle: Klucel (hydroxypropylcellulose) (HPC)
[12] = dose: 200.0 mg/kg/injection, schedule: Q01DX001 (ip), vehicle: Klucel (hydroxypropylcellulose) (HPC)
[13] = dose: 200.0 mg/kg/injection, schedule: Q01DX009 (ip), vehicle: Klucel (hydroxypropylcellulose) (HPC)
[14] = dose: 400.0 mg/kg/injection, schedule: Q01DX009 (ip), vehicle: Klucel (hydroxypropylcellulose) (HPC)
[15] = dose: 100.0 mg/kg/injection, schedule: Q04DX003 (ip), vehicle: saline with Tween-80
[16] = dose: 200.0 mg/kg/injection, schedule: Q04DX003 (ip), vehicle: saline with Tween-80
[17] = dose: 400.0 mg/kg/injection, schedule: Q04DX003 (ip), vehicle: saline with Tween-80
[18] = dose: 100.0 mg/kg/injection, schedule: Q01DX001 (ip), vehicle: saline with Tween-80

Measured: T/C

COC(=O)CNC(=O)CNC(=O)c1ccccc1 (Bz-Gly-Gly-OMe)
inactive: [1] 89 % of control | [2] 87 % of control | [3] 87 % of control

N#CC1C2C=CC(CC2)C1C#N (stereo unspecified) (tested in a mixture with another compound)
inactive: dose: 0.25 mg/kg/injection, schedule: Q01DX Z (ip), vehicle: carboxymethylcellulose (CMC) 95 % of control | dose: 0.5 mg/kg/injection, schedule: Q01DX Z (ip), vehicle: carboxymethylcellulose (CMC) 93 % of control | dose: 1.0 mg/kg/injection, schedule: Q01DX Z (ip), vehicle: carboxymethylcellulose (CMC) 95 % of control | dose: 2.0 mg/kg/injection, schedule: Q01DX Z (ip), vehicle: carboxymethylcellulose (CMC) 93 % of control | dose: 5.0 mg/kg/injection, schedule: Q01DX001 (ip), vehicle: saline 98 % of control | dose: 10.0 mg/kg/injection, schedule: Q01DX001 (ip), vehicle: saline 95 % of control

O=[N+]([O-])c1ccccc1CN1c2ccccc2N=C2c3ccccc3CC21 (stereo unspecified)
inactive: [4] 88 % of control | [5] 91 % of control | [6] 100 % of control

Cc1cccc(NCC(=O)NN)c1
inactive: [7] 100 % of control | [8] 115 % of control

O=C1C2OC2(c2ccccc2)C(=O)C2OC12c1ccccc1 (stereo unspecified)
inactive: dose: 75.0 mg/kg/injection, schedule: Q01DX001 (ip), vehicle: Klucel (hydroxypropylcellulose) (HPC) 96 % of control | dose: 150.0 mg/kg/injection, schedule: Q01DX001 (ip), vehicle: Klucel (hydroxypropylcellulose) (HPC) 87 % of control | dose: 300.0 mg/kg/injection, schedule: Q01DX001 (ip), vehicle: Klucel (hydroxypropylcellulose) (HPC) 91 % of control

ClCCCC#Cc1ccccc1
inactive: [9] 101 % of control | [10] 90 % of control | [11] 101 % of control | [12] 98 % of control | [13] 110 % of control

Cc1cccc(NC(=O)NC(C)C)c1C
inactive: [11] 109 % of control | [4] 102 % of control | [13] 109 % of control | [5] 96 % of control | [14] 102 % of control | [6] 98 % of control

CCOC1c2ccccc2-c2ccccc2N1C(=O)c1ccccc1 (stereo unspecified)
inactive: dose: 50.0 mg/kg/injection, schedule: Q04DX003 (ip), vehicle: saline with Tween-80 98 % of control | [15] 106 % of control | [16] 97 % of control and 109 % of control | [17] 103 % of control

NC(=O)N1c2ccccc2C=Cc2ccccc21
inactive: dose: 12.5 mg/kg/injection, schedule: Q01DX009 (ip), vehicle: Klucel (hydroxypropylcellulose) (HPC) 93 % of control | dose: 25.0 mg/kg/injection, schedule: Q01DX009 (ip), vehicle: Klucel (hydroxypropylcellulose) (HPC) 93 % of control | [9] 96 % of control | [11] 89 % of control | [7] 103 % of control | [13] 94 % of control | [8] 110 % of control | dose: 400.0 mg/kg/injection, schedule: Q04DX002 (ip), vehicle: Klucel (hydroxypropylcellulose) (HPC) 110 % of control

CCOC(=O)COC(CN)C(Cl)(Cl)Cl (stereo unspecified)
inactive: dose: 50.0 mg/kg/injection, schedule: Q01DX009 (ip), vehicle: saline with Tween-80 93 % of control | [1] 90 % of control | [2] 90 % of control

CC(C)P(=S)(OCc1ccccc1)C(C)C
inactive: [18] 99 % of control | dose: 200.0 mg/kg/injection, schedule: Q01DX001 (ip), vehicle: saline with Tween-80 98 % of control | dose: 400.0 mg/kg/injection, schedule: Q01DX001 (ip), vehicle: saline with Tween-80 105 % of control

c1ccc2[nH]c(-c3cscn3)nc2c1
inactive: dose: 75.0 mg/kg/injection, schedule: Q04DX003 (ip), vehicle: saline 103 % of control | dose: 150.0 mg/kg/injection, schedule: Q04DX003 (ip), vehicle: saline 103 % of control | dose: 300.0 mg/kg/injection, schedule: Q04DX003 (ip), vehicle: saline 106 % of control

CC(=O)C(C(=O)c1ccccc1)c1cc(NS(=O)(=O)N(C)C)ccc1NS(=O)(=O)N(C)C (stereo unspecified)
inactive: dose: 25.0 mg/kg/injection, schedule: Q01DX001 (ip), vehicle: saline with Tween-80 98 % of control | dose: 50.0 mg/kg/injection, schedule: Q01DX001 (ip), vehicle: saline with Tween-80 93 % of control | [18] 100 % of control

CCOC(=O)c1sc(SSc2nc(C)c(C(=O)OCC)s2)nc1C
inactive: [15] 102 % of control | [16] 94 % of control | [17] 91 % of control

COC(=O)CC[N+]12CN3CN(CN(C3)C1)C2
inactive: dose: 100.0 mg/kg/injection, schedule: Q01DX001 (ip), vehicle: saline 91 % of control | dose: 100.0 mg/kg/injection, schedule: Q04DX003 (ip), vehicle: saline 106 % of control | dose: 200.0 mg/kg/injection, schedule: Q01DX001 (ip), vehicle: saline 100 % of control | dose: 200.0 mg/kg/injection, schedule: Q04DX003 (ip), vehicle: saline 106 % of control | dose: 400.0 mg/kg/injection, schedule: Q01DX001 (ip), vehicle: saline 96 % of control | dose: 400.0 mg/kg/injection, schedule: Q04DX003 (ip), vehicle: saline 105 % of control

CCCCCCCCCCCCNC(=O)Nc1ccc(C)cc1C
inactive: [11] 98 % of control | [4] 95 % of control | [13] 94 % of control | [5] 96 % of control | [14] 96 % of control | [6] 100 % of control

CCCSCC
inactive: [15] 93 % of control | [16] 91 % of control | [17] 101 % of control

O=S(=O)(Nc1ccccc1)c1ccccc1C=C(c1ccccc1)c1ccccc1
inactive: dose: 100.0 mg/kg/injection, schedule: Q01DX001 (ip), vehicle: steriod suspending solution 105 % of control | dose: 200.0 mg/kg/injection, schedule: Q01DX001 (ip), vehicle: steriod suspending solution 86 % of control | dose: 400.0 mg/kg/injection, schedule: Q01DX001 (ip), vehicle: steriod suspending solution 97 % of control

CC(=O)Nc1ccc(NC(C)=O)c2c1C(=O)c1ccccc1C2=O
inactive: [1] 94 % of control | [15] 119 % of control | [2] 96 % of control | [16] 112 % of control | [3] 91 % of control | [17] 93 % of control

CN(C)c1ccccc1C1CCCCCC1O (stereo unspecified)
inactive: dose: 75.0 mg/kg/injection, schedule: Q01DX001 (ip), vehicle: carboxymethylcellulose (CMC) 101 % of control | dose: 150.0 mg/kg/injection, schedule: Q01DX001 (ip), vehicle: carboxymethylcellulose (CMC) 90 % of control | dose: 300.0 mg/kg/injection, schedule: Q01DX001 (ip), vehicle: carboxymethylcellulose (CMC) 90 % of control

CCOP(=O)(OCC)/C(=C\c1ccccc1)C(=O)c1ccccc1
inactive: dose: 25.0 mg/kg/injection, schedule: Q04DX003 (ip), vehicle: Klucel (hydroxypropylcellulose) (HPC) 87 % of control | dose: 50.0 mg/kg/injection, schedule: Q04DX003 (ip), vehicle: Klucel (hydroxypropylcellulose) (HPC) 87 % of control | [10] 107 % of control | [4] 90 % of control | [12] 98 % of control | dose: 400.0 mg/kg/injection, schedule: Q01DX001 (ip), vehicle: Klucel (hydroxypropylcellulose) (HPC) 106 % of control

CC(=O)OCC(=O)[C@@]1(O)CC[C@H]2[C@@H]3CCC4=CC(=O)[C@H](C)C[C@]4(C)[C@@]3(F)[C@@H](O)C[C@@]21C
inactive: dose: 50.0 mg/kg/injection, schedule: Q01DX Z (sc), vehicle: steriod suspending solution 114 % of control | dose: 100.0 mg/kg/injection, schedule: Q01DX Z (sc), vehicle: steriod suspending solution 114 % of control

Cc1cc(Cc2cc(C)cc(C(C)(C)C)c2O)c(O)c(Cc2cc(C)cc(C(C)(C)C)c2O)c1
inactive: dose: 100.0 mg/kg/injection, schedule: Q01DX009 (ip), vehicle: gum acacia 97 % of control | dose: 100.0 mg/kg/injection, schedule: Q04DX003 (ip), vehicle: gum acacia 91 % of control | dose: 200.0 mg/kg/injection, schedule: Q01DX009 (ip), vehicle: gum acacia 96 % of control | dose: 200.0 mg/kg/injection, schedule: Q04DX003 (ip), vehicle: gum acacia 96 % of control | dose: 400.0 mg/kg/injection, schedule: Q01DX009 (ip), vehicle: gum acacia 94 % of control | dose: 400.0 mg/kg/injection, schedule: Q04DX003 (ip), vehicle: gum acacia 96 % of control
